Results on 14 compounds are retold here after patent US7192948B2, “Bicyclic heterocycles as HIV integrase inhibitors” (priority 2004, dated 2007).

One data set addresses T1, HIV-integrase (Human immunodeficiency virus type 1 group M subtype B, UniProt P12497).
T1 construct: Recombinant integrase (0.26 ng) was incubated with the beads
Kind of data set: HIV-Integrase Inhibition Activity (SPA bead strand transfer assay). In kind it is biochemical. Conditions: recombinant integrase, in vitro. The protocol:
HIV-Integrase Inhibition Activity. To evaluate in-vitro activity against HIV-integrase, 5 pmole of biotin labeled substrate DNA was bound to 100 μg of Streptavidin coated PVT SPA beads (Amersham Pharmacia Biotech). Recombinant integrase (0.26 ng) was incubated with the beads for 90 min at 37° C. Unbound enzyme was removed by washing the complex followed by addition of inhibitors and 0.1 fmol of P33 labeled target DNA. The reaction was stopped by adding EDTA to a final concentration of […]. Samples were counted in TopCountNXT (Packard) and the CPM was used as a measure of integration. The reaction condition was as described in A. Engelman and R. Craigie, J. Virol. 69, 5908–5911 (1995). The sequences of substrate and target DNA were described in Nucleic Acid Research 22, 1121–1122 (1994).

Regarding `O=C1Cn2c(nc(C(=O)NCc3ccc(Cl)c(Cl)c3)c(O)c2=O)N1` [Example 2, 6-Hydroxy-2,5-dioxo-1,2,3,5-tetrahydro-imidazo[1,2-a]pyrimidine-7-carboxylic acid 3,4-dichloro-benzylamide], the melting point is 280 °C (dec.). For the same compound, at HIV-integrase, the IC50 fell in the range of 4 to 15 nM.
`Cc1cc(CNC(=O)c2nc3n(c(=O)c2O)CC(=O)N3)ccc1F` [Example 3, 6-Hydroxy-2,5-dioxo-1,2,3,5-tetrahydro-imidazo[1,2-a]pyrimidine-7-carboxylic acid 4-fluoro-3-methyl-benzylamide]: the melting point was 287 °C (dec.). Besides, the IC50 at HIV-integrase was in the range of 16 to 49000 nM.
Consider `O=C1Cn2c(nc(C(=O)NCc3ccc(F)c(Cl)c3)c(O)c2=O)N1` [Example 4, 6-Hydroxy-2,5-dioxo-1,2,3,5-tetrahydro-imidazo[1,2-a]pyrimidine-7-carboxylic acid 3-chloro-4-fluoro-benzylamide], for which the melting point was 295 °C (dec.). In addition, the IC50 on HIV-integrase was in the range of 16 to 49000 nM.
The like results for `Cc1ccc(CNC(=O)c2nc3n(c(=O)c2O)CC(=O)N3)cc1C` [Example 5, 6-Hydroxy-2,5-dioxo-1,2,3,5-tetrahydro-imidazo[1,2-a]pyrimidine-7-carboxylic acid 3,4-dimethyl-benzylamide] were, in that order, 287 °C (dec.) and 16 to 49000 nM.
`O=C1CCn2c(nc(C(=O)NCc3ccc(F)cc3)c(O)c2=O)N1` [Example 6, 3-Hydroxy-4,8-dioxo-6,7,8,9-tetrahydro-4H-pyrimido[1,2-a]pyrimidine-2-carboxylic acid 4-fluoro-benzylamide]: the melting point was > 300 °C (dec.). In addition, on HIV-integrase, the IC50 lay within 16 to 49000 nM.
Turning to `O=C1CCn2c(nc(C(=O)NCc3ccc(Cl)c(Cl)c3)c(O)c2=O)N1` [Example 7, 3-Hydroxy-4,8-dioxo-6,7,8,9-tetrahydro-4H-pyrimido[1,2-a]pyrimidine-2-carboxylic acid 3,4-dichloro-benzylamide], the melting point was > 300 °C (dec.). At HIV-integrase, the IC50 is 4 to 15 nM.
The compound `Cc1cc(CNC(=O)c2nc3n(c(=O)c2O)CCC(=O)N3)ccc1F` [Example 8, 3-Hydroxy-4,8-dioxo-6,7,8,9-tetrahydro-4H-pyrimido[1,2-a]pyrimidine-2-carboxylic acid 4-fluoro-3-methyl-benzylamide] returned a melting point greater than 300 °C. Further, the IC50 at HIV-integrase lay within 4 to 15 nM.
As to `CN1C(=O)CCn2c1nc(C(=O)NCc1ccc(F)cc1)c(O)c2=O` [Example 18, N-(4-Fluorobenzyl)-3-hydroxy-9-methyl-4,8-dioxo-6,7,8,9-tetrahydro-4H-pyrimido[1,2-a]pyrimidine-2-carboxamide], the melting point lay within 176 to 178 °C. For the same compound, the IC50 on HIV-integrase was 16 to 49000 nM.
The compound `CN1C(=O)CCn2c1nc(C(=O)NCc1ccc(Cl)c(Cl)c1)c(O)c2=O` [Example 19, N-(3,4-Dichlorobenzyl)-3-hydroxy-9-methyl-4,8-dioxo-6,7,8,9-tetrahydro-4H-pyrimido[1,2-a]pyrimidine-2-carboxamide] returned a melting point of 198 to 201 °C. In addition, the IC50 at HIV-integrase is 4 to 15 nM.
For `Cc1cc(CNC(=O)c2nc3n(c(=O)c2O)CCC(=O)N3C)ccc1F` [Example 20, N-(4-Fluoro-3-methylbenzyl)-3-hydroxy-9-methyl-4,8-dioxo-6,7,8,9-tetrahydro-4H-pyrimido[1,2-a]pyrimidine-2-carboxamide] the same measures were 216 °C and 4 to 15 nM.
In turn, `CN1C(=O)CCn2c1nc(C(=O)NCc1ccc(F)c(Cl)c1)c(O)c2=O` [Example 21, N-(3-Chloro-4-fluorobenzyl)-3-hydroxy-9-methyl-4,8-dioxo-6,7,8,9-tetrahydro-4H-pyrimido[1,2-a]pyrimidine-2-carboxamide] yielded a melting point of 201 °C. For the same compound, at HIV-integrase, the IC50 was in the range of 4 to 15 nM.
For `Cc1ccc(CNC(=O)c2nc3n(c(=O)c2O)CCC(=O)N3C)cc1C` [Example 22, N-(3,4-Dimethylbenzyl)-3-hydroxy-9-methyl-4,8-dioxo-6,7,8,9-tetrahydro-4H-pyrimido[1,2-a]pyrimidine-2-carboxamide] the same measures were 181 °C and 16 to 49000 nM.
As for `CC1(C)NC(=O)Cn2c1nc(C(=O)NCc1ccc(F)cc1)c(O)c2=O` [Example 45, N-(4-fluorobenzyl)-3-hydroxy-9,9-dimethyl-4,7-dioxo-6,7,8,9-tetrahydro-4H-pyrazino[1,2-a]pyrimidine-2-carboxamide], on HIV-integrase, the IC50 fell in the range of 16 to 49000 nM.
On to `O=C(NCc1ccc(F)cc1)c1nc2n(c(=O)c1O)CC(=O)N1CCC[C@@H]21` [Example 46, (S)-7-Hydroxy-4,6-dioxo-2,3,4,5,6,9b-hexahydro-1H-3a,5a,9-triaza-benz[e]indene-8-carboxylic acid 4-fluoro-benzylamide], for which, at HIV-integrase, the IC50 is no less than 50 nM.
